Tests used:
[1] = tested on: SW480 cells (human primary colon cancer); test: MTT assay, SW480 cells; type: cell-based; conditions: for IC50: Homo sapiens, SW480, MTT, 72 h, mean ± SD; for effectiveness against SW480 cells (in words): based on IC50, MTT 72 h
From the text: (§1) Primary and metastatic colon cancer (SW480, SW620), metastatic prostate cancer (PC3), and human immortal keratinocyte (HaCaT) cell lines and immortal microvascular endothelial cells (HMEC-1) were obtained from the American Type Culture Collection (ATCC, Rockville, USA) and cultured in recommended medium, namely, MEM (Biowest SAS, France) for the SW480 and SW620 cells, RPMI 1640 (Biowest SAS, Nuaillé, France) for PC3, DMEM (Biowest SAS, France) for HaCaT and MCDB 131 (PAN BioTech, Aidenbach, Germany) for HMEC-1. The SW480 and SW620 cell lines were initiated by A. Leibovitz et al. and derived from a human primary colon adenocarcinoma and lymph node metastasis of the same patient. respectively. PC3 cell cells were initiated from a bone metastasis of a human prostatic adenocarcinoma. HaCaT cells were obtained from adult human skin, while HMEC-1 cells were established from the dermis of a human neonate. Cells were cultured in recommended medium supplemented with 10% FBS (Biowest SAS, Nuaillé, France), penicillin (100 U/mL), streptomycin […] (Gibco Life Technologies, Waltham MA, USA) and incubated at 37 °C under 5% CO2. The culture medium of HMEC-1 cells was additionally supplemented with glutamine (1 mM) and microvascular growth supplement (5%) (MVGS; Gibco, USA). The cells were cultured until 80% confluency was reached, harvested by treatment with 0.25% trypsin 0.02% EDTA (Gibco Life Technologies, Waltham, MA, USA) and subsequently used for further experiments.
(§2) Cell viability was estimated using a conversion of 3-(4,5-dimethylthiazol-2-yl)-2,5-diphenyltetrazolium bromide salt (MTT) to insoluble formazan crystals by mitochondrial dehydrogenases, present in living cells. Cells were cultured in 96-well plates (l × 10^4 cells per well) and incubated for 24 h at 37 °C under 5% CO2. Next, the cells were treated with various concentrations of the tested compounds (ranging from 10 to 180 μM) and incubated for 72 h at 37 °C under 5% CO2. Untreated cells were used as the control. Next, the medium was removed, MTT solution (0.5 mg/mL) was added to each well, and the cells were incubated for 4 h at 37 °C under 5% CO2. After that, the obtained formazan crystals were dissolved in DMSO and isopropanol (1:1, v/v). The optical density of the dissolved crystals was measured at a wavelength of 570 nm using a UVM 340 reader (ASYS Hitech GmbH, Austria). Cell viability was presented as a percent of MTT reduced in treated cells versus control cells. The relative MTT level (%) was calculated as [A]/[B] × 100, where [A] is the absorbance of the test sample, and [B] is the absorbance of the control sample. The IC50 value was estimated using CompuSyn version 1.0.

[2] = tested on: SW620 cells (human metastatic colon cancer); test: MTT assay, SW620 cells; type: cell-based; conditions: SW-620, 72 h, mean ± SD
From the text: as §1, §2

[3] = tested on: PC3 cells (human metastatic prostate cancer); test: MTT assay, PC3 cells; type: cell-based; conditions: for IC50: Homo sapiens, PC-3, MTT, 72 h, mean ± SD
From the text: as §1, §2

[4] = tested on: HaCaT cells (human immortal keratinocyte); test: MTT assay, HaCaT normal cells; type: cell-based; conditions: for IC50: Homo sapiens, HaCaT, MTT, 72 h, mean ± SD, normal cells
From the text: as §1, §2

[5] = tested on: panel of 60 human cancer cell lines; design: method as in PMID 33387732; conditions: dose of 10 µM ref 14; cited from earlier work
[6] = tested on: HMEC-1 cells (human immortal microvascular endothelial cells); test: MTT assay, HMEC-1 normal cells; type: cell-based; conditions: 72 h, mean ± SD
From the text: Primary and metastatic colon cancer (SW480, SW620), metastatic prostate cancer (PC3), and human immortal keratinocyte (HaCaT) cell lines and immortal microvascular endothelial cells (HMEC-1) were obtained from the American Type Culture Collection (ATCC, Rockville, USA) and cultured in recommended medium, namely, MEM (Biowest SAS, France) for the SW480 and SW620 cells, RPMI 1640 (Biowest SAS, Nuaillé, France) for PC3, DMEM (Biowest SAS, France) for HaCaT and MCDB 131 (PAN BioTech, Aidenbach, Germany) for HMEC-1. The SW480 and SW620 cell lines were initiated by A. Leibovitz et al. and derived from a human primary colon adenocarcinoma and lymph node metastasis of the same patient. respectively. PC3 cell cells were initiated from a bone metastasis of a human prostatic adenocarcinoma. […]
Cell viability was estimated using a conversion of 3-(4,5-dimethylthiazol-2-yl)-2,5-diphenyltetrazolium bromide salt (MTT) to insoluble formazan crystals by mitochondrial dehydrogenases, present in living cells. […] The optical density of the dissolved crystals was measured at a wavelength of 570 nm using a UVM 340 reader (ASYS Hitech GmbH, Austria). […] The relative MTT level (%) was calculated as [A]/[B] × 100, where [A] is the absorbance of the test sample, and [B] is the absorbance of the control sample. […]

human erythrocytes = test: Determination of hemolytic activity; type: cell-based; conditions: 10^−6 or 10^−5 M, 37 °C, 30 min, PBS
Description: The hemolysis experiment was performed according to the previous report and was approved by the Bioethics Commission at the Lower Silesian Medical Chamber (1/PNHAB/2018). Freshly isolated human erythrocytes were incubated with compound 4 dissolved in DMSO (final concentration of 10^−6 or 10^−5 M) in PBS buffer at 37 °C for 30 min. The samples were then centrifuged and the absorbance of hemoglobin in the supernatants was measured at 540 nm. Additionally, negative (erythrocytes in PBS buffer), positive (erythrocytes in distilled water), and DMSO controls were also performed.

[7] = target: T1, E. coli TP (thymidine phosphorylase, TP/PD-ECGF) (Escherichia coli, UniProt P07650); test: Thymidine phosphorylase inhibition; type: biochemical; conditions: 100 µM screening concentration
T1 construct: purchased Sigma T6632
T1 sequence (P07650 whole entry): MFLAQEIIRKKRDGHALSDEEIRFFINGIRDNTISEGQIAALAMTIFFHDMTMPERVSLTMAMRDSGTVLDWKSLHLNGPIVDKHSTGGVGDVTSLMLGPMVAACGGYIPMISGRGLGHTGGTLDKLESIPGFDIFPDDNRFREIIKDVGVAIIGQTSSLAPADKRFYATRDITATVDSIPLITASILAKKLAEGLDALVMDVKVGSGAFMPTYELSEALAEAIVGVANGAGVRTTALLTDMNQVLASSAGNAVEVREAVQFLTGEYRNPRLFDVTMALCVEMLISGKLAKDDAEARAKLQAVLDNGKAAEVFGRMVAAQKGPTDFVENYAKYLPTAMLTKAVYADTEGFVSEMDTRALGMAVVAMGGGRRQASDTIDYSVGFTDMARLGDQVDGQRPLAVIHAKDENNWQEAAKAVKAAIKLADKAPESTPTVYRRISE
Description: TP/PD-ECGF (E. coli TP (Sigma T6632)) activity was determined by measuring the absorbance at 290 nm spectrophotometrically, according to the manufacturer′s procedure [25]. Briefly the reaction mixture of 145 µL of potassium phosphate buffer (pH 7.4), 20 µL of 1.5 mM Thymidine 50 monophosphate solution as substrate, and 30 µL of an enzyme (E. coli TP, 0.05 and 0.002 U) was incubated with 5 µL of test materials for 10 min at 25 °C in a 96-well, flat bottom microplate (200 µL). Readings were taking by a microplate reader (SpectraMax Plus384, USA) at 290 nm. The readings were taken continuously after 10, 20, and 30 min by a microplate reader. All assays were performed in triplicate.

| IC50 [1] [µM] | IC50 [2] [µM] | IC50 [3] [µM] | melting point [°C] | Structure (SMILES) | IC50 [4] [µM] | effectiveness against SW480 cells (in words) [1] | growth-inhibitory potency against PC3 (in words) ([3]; MTT 72 h) | growth inhibition (in words) [5] | cytotoxic effect on HaCaT (in words) ([4]; 72-h exposure) | IC50 [6] [µM] | hemolytic activity against human red blood cells (human erythrocytes) | inhibition of thymidine phosphorylase activity [7] [%] |
| --- | --- | --- | --- | --- | --- | --- | --- | --- | --- | --- | --- | --- |
| > 200 | 97.7 ± 10.7 | 60.28 ± 0.4 |  | CC(=O)c1ccc(N2CCN(CCCCCn3ccn4c5c(=O)n(C)c(=O)n(C)c5nc34)CC2)cc1 [Compound 11, 8-(5-(4-(4-Acetylphenyl)piperazin-1-yl)pentyl)-1,3-dimethyl-1H-imidazo[2,1-f]purine-2,4(3H,8H)-dione] | 58.6 ± 4.91 |  |  |  |  |  |  |  |
| 40.7 ± 3.54 | 43.1 ± 4.41 | 36.2 ± 4.98 | 155.3 to 156.2 | CC(=O)c1ccc(N2CCN(CCCCCN3C(=O)NC4(CCc5ccccc54)C3=O)CC2)cc1 (racemic) [Compound 2, (R,S)-1-(5-(4-(4-Acetylphenyl)piperazin-1-yl)pentyl)-2′,3′-dihydrospiro[imidazolidine-4,1′-indene]-2,5-dione] | 22.6 ± 2.69 | effective | moderate growth-inhibitory potency |  |  |  |  |  |
| > 200 | > 200 | 91 ± 5.86 |  | CC(=O)c1ccc(N2CCN(CCCCn3c(=O)c(Br)cn4c5c(=O)n(C)c(=O)n(C)c5nc34)CC2)cc1 [Compound 14, 9-(4-(4-(4-Acetylphenyl)piperazin-1-yl)butyl)-7-bromo-1,3-dimethylpyrimido[2,1-f]purine-2,4,8(1H,3H,9H)-trione] | 96.5 ± 4.93 |  |  |  |  |  |  |  |
| 0.29 ± 0.08 |  | 0.59 ± 0.02 |  | COc1cccc2c1C(=O)c1c(O)c3c(c(O)c1C2=O)C[C@@](O)(C(=O)CO)C[C@@H]3O[C@H]1C[C@H](N)[C@H](O)[C@H](C)O1 [Doxorubicin, reference compound] | 0.24 ± 0.03 |  |  |  |  |  |  |  |
| > 200 | 131 ± 12.6 | 86.1 ± 9.85 |  | CC(=O)c1ccc(N2CCN(CCCCn3c(C)cn4c5c(=O)n(C)c(=O)n(C)c5nc34)CC2)cc1 [Compound 10, 8-(4-(4-(4-Acetylphenyl)piperazin-1-yl)butyl)-1,3,7-trimethyl-1H-imidazo[2,1-f]purine-2,4(3H,8H)-dione] | 96.1 ± 5.32 |  |  |  |  |  |  |  |
| 129 ± 10.8 | 104 ± 7.36 | 64.5 ± 6.76 | 168.8 to 170.2 | CC(=O)c1ccc(N2CCN(CCCCN3C(=O)NC4(CCCc5ccccc54)C3=O)CC2)cc1 (racemic) [Compound 3, (R,S)-1-(4-(4-(4-Acetylphenyl)piperazin-1-yl)butyl)-3′,4′-dihydro-2′H-spiro[imidazolidine-4,1′-naphthalene]-2,5-dione] | 114 ± 8.93 |  |  |  |  |  |  |  |
| > 200 | > 200 | 94.2 ± 8.36 |  | CC(=O)c1ccc(N2CCN(CCCCCn3c(=O)ccn4c5c(=O)n(C)c(=O)n(C)c5nc34)CC2)cc1 [Compound 13, 9-(5-(4-(4-Acetylphenyl)piperazin-1-yl)pentyl)-1,3-dimethylpyrimido[2,1-f]purine-2,4,8(1H,3H,9H)-trione] | 126 ± 14.3 |  |  |  |  |  |  |  |
| 54.2 ± 3.89 | 67 ± 5.24 | 57.6 ± 5.86 | 180.2 to 181.3 | CC(=O)c1ccc(N2CCN(CCCCN3C(=O)NC4(CCc5ccccc54)C3=O)CC2)cc1 (racemic) [Compound 1, (R,S)-1-(4-(4-(4-Acetylphenyl)piperazin-1-yl)butyl)-2′,3′-dihydrospiro[imidazolidine-4,1′-indene]-2,5-dione] | 41.8 ± 7.62 | effective |  |  |  |  |  |  |
| 53.7 ± 7.78 | 78.3 ± 4.76 | 95.1 ± 8.4 | 157.4 to 157.7 | CC(=O)c1ccc(N2CCN(CCCCCN3C(=O)NC4(Cc5ccccc5C4)C3=O)CC2)cc1 [Compound 6, (R,S)-1-{5-[4-(4-Acetylophenyl)piperazyn-1-yl]pentyl}-1′,3′-dihydro-2H,5H-spiro[imidazolidine-4,2′-indene]-2,5-dione] | 159 ± 14.1 | effective |  |  |  |  |  |  |
|  |  |  |  | CC(=O)c1ccc(NC(=O)Cn2c(Br)nc3c2c(=O)n(C)c(=O)n3C)cc1 [Compound 22e, N-(4-acetylphenyl)-2-[8-bromo-1,3-dimethyl-2,6-dioxo-2,3-dihydro-1H-purin-7(6H)-yl]acetamide] |  |  |  | moderate growth inhibition |  |  |  |  |
| 153 ± 11.3 | 145 ± 3.76 | 101 ± 15.4 | 252 to 253 | CC(=O)c1ccc(N2CCN(CCCCn3ccn4c5c(=O)n(C)c(=O)n(C)c5nc34)CC2)cc1 [Compound 9, 8-(4-(4-(4-Acetylphenyl)piperazin-1-yl)butyl)-1,3-dimethyl-1H-imidazo[2,1-f]purine-2,4(3H,8H)-dione] | 72.8 ± 6.08 |  |  |  |  |  |  |  |
| 102 ± 2.37 | > 200 | > 200 | 213.8 to 214.9 | CC(=O)c1ccc(N2CCN(CCCCN3C(=O)NC4(Cc5ccccc5C4)C3=O)CC2)cc1 [Compound 5, (R,S)-1-{4-[4-(4-Acetylophenyl)piperazyn-1-yl]butyl}-1′,3′-dihydro-2H,5H-spiro[imidazolidine-4,2′-indene]-2,5-dione] | > 200 |  |  |  |  |  |  |  |
| > 200 | 169 ± 22.9 | 71.9 ± 9.85 |  | CC(=O)c1ccc(N2CCN(CCCCn3c(=O)ccn4c5c(=O)n(C)c(=O)n(C)c5nc34)CC2)cc1 [Compound 12, 9-(4-(4-(4-Acetylphenyl)piperazin-1-yl)butyl)-1,3-dimethylpyrimido[2,1-f]purine-2,4,8(1H,3H,9H)-trione] | 83.9 ± 4.2 |  |  |  |  |  |  |  |

| Structure (SMILES) | IC50 [1] [µM] | IC50 [2] [µM] | IC50 [3] [µM] | melting point [°C] | IC50 [4] [µM] | effectiveness against SW480 cells (in words) [1] | growth-inhibitory potency against PC3 (in words) ([3]; MTT 72 h) | growth inhibition (in words) [5] | cytotoxic effect on HaCaT (in words) ([4]; 72-h exposure) | IC50 [6] [µM] | hemolytic activity against human red blood cells (human erythrocytes) | inhibition of thymidine phosphorylase activity [7] [%] |
| --- | --- | --- | --- | --- | --- | --- | --- | --- | --- | --- | --- | --- |
| CC(=O)c1ccc(N2CCN(CCCCCN3C(=O)NC4(CCCc5ccccc54)C3=O)CC2)cc1 (racemic) [Compound 4, (R,S)-1-(5-(4-(4-Acetylphenyl)piperazin-1-yl)pentyl)-3′,4′-dihydro-2′H-spiro[imidazolidine-4,1′-naphthalene]-2,5-dione] | 16.8 ± 2.37 | 12.9 ± 3.16 | 20.6 ± 3.35 | 134.3 to 135.1 | 36.8 ± 5.32 | effective |  |  | no significant cytotoxic effect | 149 ± 10.6 | no hemolytic activity | 21.21 |

Source: publication PMC8347464, “Design, Synthesis, and In Vitro Antiproliferative Activity of Hydantoin and Purine Derivatives with the 4-Acetylphenylpiperazinylalkyl Moiety” (Materials, 2021)
